Data as given in patent publication US9777017B2, “Tricyclic fused thiophene derivatives as JAK inhibitors” (Incyte Corporation, priority 2012, dated 2017).

What was measured:
Type in all cases: biochemical
[1] = biological target: human JAK2 (Homo sapiens (Human), UniProt O60674); experiment: In vitro JAK kinase assay (HTRF, phosphorylation of a biotinylated peptide), JAK2; design: key to JAK2 IC50 (nM): +indicates an IC50 of ≦100 nM; ++indicates an IC50 of ≦1000 nM; +++indicates an IC50 of ≦2000 nM; ++++indicates an IC50 of >2000 nM; +++++indicates that the IC50 was greater than the highest concentration tested; details: 1 mM ATP
Sequence of human JAK2 (O60674 828-1132): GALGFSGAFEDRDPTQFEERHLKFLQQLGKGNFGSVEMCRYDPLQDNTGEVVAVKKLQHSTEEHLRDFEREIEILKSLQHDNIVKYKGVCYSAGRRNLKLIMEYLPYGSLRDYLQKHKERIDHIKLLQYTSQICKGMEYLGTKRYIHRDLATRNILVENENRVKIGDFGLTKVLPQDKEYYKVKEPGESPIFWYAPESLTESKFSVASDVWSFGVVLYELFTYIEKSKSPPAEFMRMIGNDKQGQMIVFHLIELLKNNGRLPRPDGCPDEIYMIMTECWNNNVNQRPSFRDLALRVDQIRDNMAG
Description: (§1) Compounds herein were tested for inhibitory activity of JAK targets according to the following in vitro assay described in Park et al., Analytical Biochemistry 1999, 269, 94-104. The catalytic domains of human JAK1 (a.a. 837-1142), JAK2 (a.a. 828-1132) and JAK3 (a.a. 781-1124) were expressed using baculovirus in insect cells and purified. The catalytic activity of JAK1, JAK2 or JAK3 was assayed by measuring the phosphorylation of a biotinylated peptide. The phosphorylated peptide was detected by homogenous time resolved fluorescence (HTRF). IC50s of compounds were measured for each kinase in the 40 μL reactions that contain the enzyme, ATP and 500 nM peptide in 50 mM Tris (pH 7.8) buffer with 100 mM NaCl, 5 mM DTT, and 0.1 mg/mL (0.01%) BSA. For the 1 mM IC50 measurements, ATP concentration in the reactions was 1 mM. Reactions were carried out at room temperature for 1 hour and then stopped with 20 μL 45 mM EDTA, 300 nM SA-APC, 6 nM Eu-Py20 in assay buffer (Perkin Elmer, Boston, Mass.). Binding to the Europium labeled antibody took place for 40 minutes and HTRF signal was measured on a PHERA star plate reader (BMG, Cary, N.C.). The Example compounds were each tested in the Example A assay (see Table 1 for data for the compounds of the examples as tested by the assay of Example A at 1 mM ATP).

[2] = test system: human JAK1; experiment: In vitro JAK kinase assay (HTRF, phosphorylation of a biotinylated peptide), JAK1; details: ratio of IC50s, 1 mM ATP
Description: as §1

[3] = biological target: human JAK1 (Homo sapiens, UniProt P23458); experiment: as above; details: 1 mM ATP
Description: as §1

IC50 [1] | JAK2/JAK1 [2] | IC50 [3] | JAK2 IC50 (nM) [1] | SMILES
≤ 2 µM | >9 | ≤ 1 µM | – | CN1CC(c2nc3cnc4ccsc4c3n2[C@H]2CC[C@H](CC#N)CC2)C1 [Example 29, {trans-4-[2-(1-Methylazetidin-3-yl)-1H-imidazo[4,5-d]thieno[3,2-b]pyridin-1-yl]cyclohexyl}acetonitrile]
– | >10 | ≤ 1 µM | +++++ | CCNC(=O)C[C@H]1CC[C@H](n2c([C@@H](C)O)nc3cnc4ccsc4c32)CC1 [Example 31, N-Ethyl-2-(trans-4-{2-[(1R)-1-hydroxyethyl]-1H-imidazo[4,5-d]thieno[3,2-b]pyridin-1-yl}cyclohexyl)acetamide]
> 2 µM | >10 | ≤ 0.1 µM | – | C[C@@H](O)c1nc2cnc3ccsc3c2n1C1CCCC(CCC#N)C1 (stereo partly drawn) [Example 32, 3-(3-{2-[(1R)-1-Hydroxyethyl]-1H-imidazo[4,5-d]thieno[3,2-b]pyridin-1-yl}cyclohexyl)propanenitrile]
≤ 1 µM | >7 | ≤ 0.1 µM | – | Cc1nc2cnc3ccsc3n2c1-c1ccc(CC#N)cc1 [Example 33, [4-(7-Methylimidazo[1,2-a]thieno[3,2-e]pyrazin-8-yl)phenyl]acetonitrile]
≤ 0.1 µM | >10 | ≤ 0.1 µM | – | Cc1nc2cnc3ccsc3c2n1[C@H]1CC[C@H](CC#N)OC1 [Example 38, [(2R,5S)-5-(2-Methyl-1H-imidazo[4,5-d]thieno[3,2-b]pyridin-1-yl)tetrahydro-2H-pyran-2-yl]acetonitrile]
≤ 1 µM | >10 | ≤ 0.1 µM | – | CCc1nc2cnc3ccsc3c2n1[C@H]1CC[C@H](CC#N)OC1 [Example 39, [(2R,5S)-5-(2-Ethyl-1H-imidazo[4,5-d]thieno[3,2-b]pyridin-1-yl)tetrahydro-2H-pyran-2-yl]acetonitrile]
≤ 1 µM | >10 | ≤ 0.1 µM | – | CC(C)c1nc2cnc3ccsc3c2n1[C@H]1CC[C@H](CC#N)OC1 [Example 42, [(2R,5S)-5-(2-Isopropyl-1H-imidazo[4,5-d]thieno[3,2-b]pyridin-1-yl)tetrahydro-2H-pyran-2-yl]acetonitrile]
≤ 1 µM | >10 | ≤ 0.1 µM | – | N#CC[C@H]1CC[C@H](n2c(C3CC3)nc3cnc4ccsc4c32)CO1 [Example 43, [(2R,5S)-5-(2-Cyclopropyl-1H-imidazo[4,5-d]thieno[3,2-b]pyridin-1-yl)tetrahydro-2H-pyran-2-yl]acetonitrile]
≤ 1 µM | >10 | ≤ 0.1 µM | – | CCc1nc2cnc3ccsc3c2n1[C@H]1CC[C@H](CC#N)CC1 [Example 47, [trans-4-(2-Ethyl-1H-imidazo[4,5-d]thieno[3,2-b]pyridin-1-yl)cyclohexyl]acetonitrile]
≤ 0.1 µM | >7 | ≤ 0.1 µM | – | Cc1nc2cnc3ccsc3c2n1[C@H]1CC[C@H](CC#N)CC1 [Example 48, [trans-4-(2-Methyl-1H-imidazo[4,5-d]thieno[3,2-b]pyridin-1-yl)cyclohexyl]acetonitrile]
– | >10 | ≤ 1 µM | +++++ | C[C@@H](O)c1nc2cnc3ccsc3c2n1[C@H]1CC[C@@H](CC#N)C1.O=C(O)C(F)(F)F [Example 49, ((4R,3S)-3-{2-[(1R)-1-Hydroxyethyl]-1H-imidazo[4,5-d]thieno[3,2-b]pyridin-1-yl}cyclopentyl)acetonitrile trifluoroacetate]
– | >10 | ≤ 1 µM | +++++ | CCOC(=O)N1CCC[C@H](n2c([C@@H](C)O)nc3cnc4ccsc4c32)C1 [Example 50, Ethyl (3S)-3-{2-[(1R)-1-hydroxyethyl]-1H-imidazo[4,5-d]thieno[3,2-b]pyridin-1-yl}piperidine-1-carboxylate]
> 2 µM | >10 | ≤ 1 µM | – | C[C@@H](O)c1nc2cnc3ccsc3c2n1[C@H]1CCCN(C(=O)CC#N)C1.O=C(O)C(F)(F)F [Example 51, 3-((3S)-3-{2-[(1R)-1-Hydroxyethyl]-1H-imidazo[4,5-d]thieno[3,2-b]pyridin-1-yl}piperidin-1-yl)-3-oxopropanenitrile trifluoroacetate]
– | >10 | ≤ 1 µM | +++++ | C[C@@H](O)c1nc2cnc3ccsc3c2n1[C@H]1CCCN(C(=O)CCc2cn[nH]c2)C1 [Example 53, (1R)-1-(1-{(3S)-1-[3-(1H-Pyrazol-4-yl)propanoyl]piperidin-3-yl}-1H-imidazo[4,5-d]thieno[3,2-b]pyridin-2-yl)ethanol]
– | >10 | ≤ 1 µM | +++++ | C[C@@H](O)c1nc2cnc3ccsc3c2n1[C@H]1CCCN(C(=O)CCc2cccnc2)C1 [Example 54, (1R)-1-{1-[(3S)-1-(3-Pyridin-3-ylpropanoyl)piperidin-3-yl]-1H-imidazo[4,5-d]thieno[3,2-b]pyridin-2-yl}ethanol]
– | >10 | ≤ 1 µM | +++++ | CC(CC(=O)N1CCC[C@H](n2c([C@@H](C)O)nc3cnc4ccsc4c32)C1)c1ccccc1 (stereo partly drawn) [Example 55, (1R)-1-{1-[(3S)-1-(3-Phenylbutanoyl)piperidin-3-yl]-1H-imidazo[4,5-d]thieno[3,2-b]pyridin-2-yl}ethanol]
– | >10 | ≤ 1 µM | +++++ | C[C@@H](O)c1nc2cnc3ccsc3c2n1[C@H]1CCCN(CCC#N)C1 [Example 56, 3-((3S)-3-{2-[(1R)-1-Hydroxyethyl]-1H-imidazo[4,5-d]thieno[3,2-b]pyridin-1-yl}piperidin-1-yl)propanenitrile]
> 2 µM | >10 | ≤ 0.1 µM | – | C[C@@H](O)c1nc2cnc3ccsc3c2n1[C@H]1CCCN(C(=O)CCc2ccccc2)C1 [Example 57]
– | >10 | ≤ 0.1 µM | +++++ | C[C@@H](O)c1nc2cnc3ccsc3c2n1[C@H]1CCCN(C(=O)CCC#N)C1 [Example 58, 4-((3S)-3-{2-[(1R)-1-Hydroxyethyl]-1H-imidazo[4,5-d]thieno[3,2-b]pyridin-1-yl}piperidin-1-yl)-4-oxobutanenitrile]
– | >10 | ≤ 1 µM | +++++ | C[C@@H](O)c1nc2cnc3ccsc3c2n1[C@H]1CCCN(C(=O)CCCC#N)C1 [Example 59, 5-((3S)-3-{2-[(1R)-1-Hydroxyethyl]-1H-imidazo[4,5-d]thieno[3,2-b]pyridin-1-yl}piperidin-1-yl)-5-oxopentanenitrile]

SMILES | IC50 [1] | JAK2/JAK1 [2] | IC50 [3] | JAK2 IC50 (nM) [1]
C[C@@H](O)c1nc2cnc3ccsc3c2n1[C@@H]1CC[C@@H](CC#N)OC1 [Example 44, ((2S,5R)-5-{2-[(1R)-1-Hydroxyethyl]-1H-imidazo[4,5-b]thieno[3,2-b]pyridin-1-yl}tetrahydro-2H-pyran-2-yl)acetonitrile] | – | >10 | ≤ 1 µM | +++++
C[C@H](O)c1nc2cnc3ccsc3c2n1[C@H]1CC[C@H](CC#N)OC1 [Example 45, ((2R,5S)-5-{2-[(1S)-1-Hydroxyethyl]-1H-imidazo[4,5-d]thieno[3,2-b]pyridin-1-yl}tetrahydro-2H-pyran-2-yl)acetonitrile] | > 2 µM | >10 | ≤ 0.1 µM | –
